The values below come from patent publication US9120820B2, “Fluorescent molecular probes for use in assays that measure test compound competitive binding with SAM-utilizing proteins” (CAYMAN CHEMICAL COMPANY, INCORPORATED, priority 2011, dated 2015).

SMILES strings stand for the structures.

Test [1] has as its target T1, SET7/9 (Homo sapiens, UniProt Q8WTS6).
T1 construct: purchased Cayman 10320
T1 sequence (Q8WTS6 1-366): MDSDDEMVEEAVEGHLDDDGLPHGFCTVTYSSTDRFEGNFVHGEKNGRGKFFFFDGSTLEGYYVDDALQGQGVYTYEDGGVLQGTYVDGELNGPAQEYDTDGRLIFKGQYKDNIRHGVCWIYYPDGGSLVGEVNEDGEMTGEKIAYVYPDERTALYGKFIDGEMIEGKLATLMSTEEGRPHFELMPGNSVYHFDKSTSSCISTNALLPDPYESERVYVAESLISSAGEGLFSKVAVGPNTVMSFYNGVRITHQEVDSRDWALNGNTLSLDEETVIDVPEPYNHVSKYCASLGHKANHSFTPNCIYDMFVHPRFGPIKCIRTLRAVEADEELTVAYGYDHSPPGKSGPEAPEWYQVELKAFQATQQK
The test is described as follows: Sinefungin Probe 1A competition FP assay with SET7/9. It is filed as binding. Conditions: for IC50: read-out: IC50 for displacement of Sinefungin Probe 1A. On the procedure:
Methods: Carboxymethyl cellulose-purified SAM, SAH (Cayman Catalog #700145), and sinefungin were diluted in a semi-Log manner in FP buffer (Cayman Catalog #600028). Five microliters of these dilutions were added to the wells of a low-volume, black, 384-well plate (Nunc #264705). […] The assay was allowed to equilibrate at room temperature for 30 minutes in the dark. Fluorescence polarization was measured as above. The experiment was performed two independent times, each in duplicate.

Test [2] concerns the target T1, SET7/9. The test is described as follows: SET7/9 SAM-Screener high-throughput FP assay, Sinefungin Probe 1A displacement. Conditions: SET7/9; sinefungin 50 μM; SAM. The test is classed as binding.
Experimental: Methods: A collection of 14,400 compounds from the Maybridge HitFinder collection of compounds was assayed for the displacement of Sinefungin Probe 1A from SET7/9 in a high-throughput manner using the SET7/9 SAM-Screener FP assay Cayman Catalog Item #600490). Thirty microliters of assay buffer (50 mM Tris pH 8.0, 50 mM KCl, 5 mM CHAPS, 2 mM DTT) was added to every well of a black 384-well polystyrene microtiter plate (Thermo-Fisher 364576). To every well, excluding control wells, was added one microliter of a DMSO solution containing a test compound. Control wells received either 1 μl DMSO or 1 μl of a sinefungin solution. The final concentration of sinefungin control or test compounds in the assay was 50 μM or 10 μM, respectively. To every well of the plate was added 10 μl of a SET7/9 solution to give a final assay concentration of 30 nM. After a 15-minute incubation at ambient temperature, 10 μl of Sinefungin Probe 1A solution was added to every well to give a final assay concentration of 10 nM in a total assay volume of 50 μl Samples were analyzed using a Biotek Synergy H4 plate reader in fluorescence polarization mode after a 30-minute incubation at ambient temperature in the dark. Data were analyzed using GeneData (v. 9.01). […]
In test [3] the target is T1, SET7/9. The test is described as follows: Fluorescence polarization saturation binding of fluorescent probe to SET7/9. Conditions: FIG. 11A, FIG. 12. On the procedure: Methods: The experiment was performed once, with two replicate wells for all methyltransferases per condition. The sole exception to this is NSD2 (see details below). The assay was performed in a ½ area, black, 96-well plate (Corning #3686) in a final volume of 30 μL. Methyltransferases (Table 1) were serially diluted two-fold in FP buffer (Cayman Catalog #600028) and 15 μL of a given dilution were added per well to the assay plate. Fifteen microliters of sinefungin probe 1A (10 nM) were added to each well, giving a final sinefungin probe 1A concentration of 5 nM. This concentration of sinefungin probe 1A was chosen because it had at least a 10-fold increase in fluorescence (excitation max 575 nm/emission max 615 nm) over background (buffer). The mixture was incubated in the dark at room temperature for 30 minutes and its fluorescence polarization was read using a BioTek Synergy 4.

The target of test [4] is T1, SET7/9. Description: Sinefungin Probe 1B displacement FP assay with SET7/9 (Epigenetics Screening Library profiling). The test is classed as binding. Conditions: SET7/9, FIG. 11B. As to the method: Profiling of a pre-production version of the Cayman Chemical Epigenetics Screening Library (Cayman Catalog Item #11076) against SET7/9 and GLP was performed in a similar manner using Sinefungin Probe 1B. For GLP, the enzyme concentration was raised to 500 nM to produce a robust signal:noise ratio. Data were analyzed in GraphPad Prism (v. 5.04) and/or GeneData (v. 9.01).
An analog of Sinefungin Probe 1A, Sinefungin Probe 1B, wherein the hexyl portion of the linker moiety is replaced with PEG3 and the Cal Fluor® Red 610 fluorophore moiety is replaced with the “Fluor585” (Texas Red)-derived fluorophore moiety, was tested for the ability to bind several methyltransferases, including SET7/9. […] Similar data have been observed for GLP and G9a.

[5] abbreviates: 30 nM SET7/9, 10 nM Sinefungin Probe 1A, FIG. 3.

On to `Nc1ncnc2c1ncn2[C@@H]1O[C@H](CSCC[C@H](N)C(=O)O)[C@@H](O)[C@H]1O` [SAH, S-adenosylhomocysteine], for which, at SET7/9 [1] (setting [5]), the “competition with probe binding” value was “did not compete with probe binding at concentrations below 1 μM”.

By IC50 is commonly meant the concentration at which inhibition is half-maximal. Turning to `C[S+](CC[C@H](N)C(=O)O)C[C@H]1O[C@@H](n2cnc3c(N)ncnc32)[C@H](O)[C@@H]1O` (stereo partly shown) [SAM, S-Adenosylmethionine, reference compound], the half-inhibitory concentration (IC50) on SET7/9 [1] (setting [5]) is 0.13 µM. In addition, on SET7/9 [2], the “inhibition of probe binding (controls)” value is “fully inhibits probe binding”.

With `Nc1ncnc2c1ncn2[C@@H]1O[C@H](C[C@@H](N)CC[C@H](N)C(=O)O)[C@@H](OCc2cnnn2CCCCCCNC(=O)OC2CCN(C(=O)c3ccccc3C3=c4cc5c6c(c4Oc4c3cc3c7c4CCCN7CCC3)CCC[N+]=6CCC5)CC2)[C@H]1O` [Sinefungin Probe 1B], the “affinity for SET7/9 compared with the other sinefungin probes” value on SET7/9 [3] is reported as “essentially identical affinities”.

Broadly, the Ki is a measure of affinity in units of concentration, obtained from inhibition or displacement. Regarding `Nc1ncnc2c1ncn2[C@@H]1O[C@H](C[C@@H](N)CC[C@H](N)C(=O)O)[C@@H](O)[C@H]1O` [sinefungin, Sinefungin], the IC50 on SET7/9 [1] (setting [5]) was 0.22 µM. The inhibitory constant (Ki) at SET7/9 [1] (SET7/9, read-out: Ki for displacement of Sinefungin Probe 1A) was 0.168 µM; at SET7/9 [4] it was 0.12 µM.
